Results from US8192962B2, “Processes for detecting toxic substances” (Daikin Industries, Ltd., priority 2001, dated 2012).

System: Energy system protein genes
Test: DNA chip mRNA expression in yeast, energy system protein genes (Table 4)
Assay type: cell-based, Saccharomyces cerevisiae S288C
How it was run: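 Measured as treated-to-untreated fluorescence ratio on a full-genome yeast DNA chip. Cells (S288C, YPD, 25° C.) were exposed in log phase for two hours to one chemical, dosed to curb growth without killing.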

Measured: The level of expressed mRNA in the presence of chemical substance/The level of expressed mRNA in the absence of chemical substance

S=C([S-])NCCNC(=S)[S-].[Zn+2] [(11), zinc N,N′-ethylenebis(dithiocarbamate)]
2.7: yeast gene YGR256W
3.0: yeast gene YNL241C
15.4: yeast gene YJR155W
4.1: yeast gene YOR178C, cells incubated two hours with the chemical substance
4.3: yeast gene YJL052W
0.4: yeast gene YGL205W, cells incubated two hours with the chemical substance
1.0: yeast gene YBR001C, cells incubated two hours with the chemical substance | yeast gene YDL107W, cells incubated two hours with the chemical substance | yeast gene YGL256W, cells incubated two hours with the chemical substance | yeast gene YJR048W | yeast gene YMR205C, cells incubated two hours with the chemical substance | yeast gene YMR267W, cells incubated two hours with the chemical substance, 25° C., YPD medium | yeast gene YPL240C | yeast gene YPR048W, cells incubated two hours with the chemical substance
37.0: yeast gene YPL171C
2.0: yeast gene YDR050C, cells incubated two hours with the chemical substance | yeast gene YDR178W, cells incubated two hours with the chemical substance | yeast gene YHR179W
2.4: yeast gene YAL060W | yeast gene YIL160C
27.7: yeast gene YFL057C
−0.4: yeast gene YPL276W, cells incubated two hours with the chemical substance
0.7: yeast gene YDR001C | yeast gene YGL062W | yeast gene YGL187C, cells incubated two hours with the chemical substance | yeast gene YMR118C
17.6: yeast gene YOL165C
21.8: yeast gene YNL331C
1.1: yeast gene YGL018C, cells incubated two hours with the chemical substance | yeast gene YJL121C, cells incubated two hours with the chemical substance | yeast gene YJL216C, cells incubated two hours with the chemical substance | yeast gene YJR009C | yeast gene YLR044C, cells incubated two hours with the chemical substance | yeast gene YLR134W, cells incubated two hours with the chemical substance | yeast gene YPL061W, cells incubated two hours with the chemical substance | yeast gene YPL088W
1.8: yeast gene YCR012W | yeast gene YGR244C
2.5: yeast gene YER178W | yeast gene YLR345W | yeast gene YMR323W, cells incubated two hours with the chemical substance
2.1: yeast gene YBL099W, cells incubated two hours with the chemical substance | yeast gene YKL060C, cells incubated two hours with the chemical substance
2.3: yeast gene YCR105W, cells incubated two hours with the chemical substance | yeast gene YGR192C
4.7: yeast gene YDL021W
1.3: yeast gene YBL058W, cells incubated two hours with the chemical substance | yeast gene YDR079W, cells incubated two hours with the chemical substance | yeast gene YDR231C | yeast gene YGR174C, cells incubated two hours with the chemical substance | yeast gene YGR254W | yeast gene YKL016C, cells incubated two hours with the chemical substance | yeast gene YLL041C, cells incubated two hours with the chemical substance | yeast gene YLR295C, cells incubated two hours with the chemical substance, 25° C., YPD medium | yeast gene YML120C, cells incubated two hours with the chemical substance | yeast gene YOR388C, cells incubated two hours with the chemical substance
8.2: yeast gene YCL040W
0.6: yeast gene YLR377C, cells incubated two hours with the chemical substance
2.6: yeast gene YGR008C | yeast gene YOL086C, cells incubated two hours with the chemical substance
1.7: yeast gene YDL078C, cells incubated two hours with the chemical substance | yeast gene YEL039C, cells incubated two hours with the chemical substance | yeast gene YLR354C, cells incubated two hours with the chemical substance
0.9: yeast gene YDL174C | yeast gene YEL024W, cells incubated two hours with the chemical substance | yeast gene YJR121W, cells incubated two hours with the chemical substance | yeast gene YMR073C, cells incubated two hours with the chemical substance | yeast gene YPL275W, cells incubated two hours with the chemical substance
0.8: yeast gene YDL181W, cells incubated two hours with the chemical substance | yeast gene YDR529C, cells incubated two hours with the chemical substance | yeast gene YGR087C, cells incubated two hours with the chemical substance | yeast gene YKR097W | yeast gene YMR261C, cells incubated two hours with the chemical substance
1.5: yeast gene YCR046C, cells incubated two hours with the chemical substance | yeast gene YFR053C | yeast gene YKL148C, cells incubated two hours with the chemical substance | yeast gene YKR058W, cells incubated two hours with the chemical substance, 25° C., YPD medium | yeast gene YLR284C, cells incubated two hours with the chemical substance | yeast gene YLR395C, cells incubated two hours with the chemical substance | yeast gene YOR142W, cells incubated two hours with the chemical substance
1.6: yeast gene YGL191W, cells incubated two hours with the chemical substance | yeast gene YGR062C, cells incubated two hours with the chemical substance, 25° C., YPD medium | yeast gene YLR304C, cells incubated two hours with the chemical substance | yeast gene YML087C | yeast gene YNL071W
1.2: yeast gene YBR185C, cells incubated two hours with the chemical substance | yeast gene YBR221C, cells incubated two hours with the chemical substance | yeast gene YDR298C, cells incubated two hours with the chemical substance | yeast gene YIL045W | yeast gene YIR031C, cells incubated two hours with the chemical substance | yeast gene YKL141W, cells incubated two hours with the chemical substance | yeast gene YKR009C, cells incubated two hours with the chemical substance | yeast gene YLR258W, cells incubated two hours with the chemical substance | yeast gene YML129C, cells incubated two hours with the chemical substance | yeast gene YNL202W, cells incubated two hours with the chemical substance
3.6: yeast gene YGR043C | yeast gene YPR184W, cells incubated two hours with the chemical substance
1.4: yeast gene YDL067C, cells incubated two hours with the chemical substance | yeast gene YDR377W, cells incubated two hours with the chemical substance | yeast gene YHL008C | yeast gene YHR174W | yeast gene YJL166W, cells incubated two hours with the chemical substance | yeast gene YLR038C, cells incubated two hours with the chemical substance | yeast gene YPL031C, cells incubated two hours with the chemical substance | yeast gene YPL262W, cells incubated two hours with the chemical substance
